Values after ≈ are worked out from the molar mass of the structure shown. Some results are limits rather than exact numbers.

Data set [1] in a line: Solubility in 0.05 M phosphate buffer at 200 uM at pH 7.4 after 15 mins by HPLC. The format is physicochemical.
Data set [2] addresses Serine/threonine-protein kinase PLK3 (Homo sapiens, UniProt Q9H4B4). In words: biochemical.
Description: Inhibition of full length human PLK3 expressed in baculovirus-infected Trichoplusia ni cells by scintillation proximity assay
A further data set deals with HCT-116. In words: cells. The following applies: Homo sapiens, HCT-116, 72 h.
Data set [3] can be described thus: Protein binding in human plasma at 2000 ng/mL after 6 hrs by equilibrium dialysis method. The format is ADME, cell-free. Particulars: read-out: PPB (converted).
For data set [4], the target named is Serine/threonine-protein kinase PLK1 (Homo sapiens, UniProt P53350). In words: biochemical.
Description: Inhibition of human PLK1 kinase domain expressed in baculovirus-infected Trichoplusia ni cells by scintillation proximity assay
For data set [5], the target named is Vascular endothelial growth factor receptor 2 (Homo sapiens, UniProt P35968). The data set is described as follows: Inhibition of human VEGFR2.
The next data set relates to A549. The data set is described as follows: Antiproliferative activity against human A549 cells after 72 hrs by luminescence-based cell viability assay. Format: functional. Particulars: A549, 72 h.
For data set [6], the target named is Platelet-derived growth factor receptor beta (Homo sapiens, UniProt P09619). The data set is described as follows: Inhibition of human PDGFR1beta.
The target in data set [7] is T1, Serine/threonine-protein kinase Nek2 (Homo sapiens, UniProt P51955).
T1 sequence (P51955 whole entry): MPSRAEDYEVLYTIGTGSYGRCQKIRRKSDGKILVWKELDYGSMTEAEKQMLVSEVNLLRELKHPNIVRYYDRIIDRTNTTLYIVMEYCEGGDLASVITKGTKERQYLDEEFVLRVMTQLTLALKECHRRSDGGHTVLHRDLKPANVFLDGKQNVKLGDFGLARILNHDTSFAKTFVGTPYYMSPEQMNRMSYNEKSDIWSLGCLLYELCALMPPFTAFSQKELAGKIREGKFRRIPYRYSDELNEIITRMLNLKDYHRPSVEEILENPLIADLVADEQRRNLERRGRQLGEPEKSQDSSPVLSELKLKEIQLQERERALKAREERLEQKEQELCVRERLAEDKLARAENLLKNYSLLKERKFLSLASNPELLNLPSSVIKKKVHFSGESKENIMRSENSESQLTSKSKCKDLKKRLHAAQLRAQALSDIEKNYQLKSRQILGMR

The target in data set [8] is T2, Phosphatidylinositol 4,5-bisphosphate 3-kinase catalytic subunit delta isoform (Homo sapiens, UniProt O00329).
T2 sequence (O00329 whole entry): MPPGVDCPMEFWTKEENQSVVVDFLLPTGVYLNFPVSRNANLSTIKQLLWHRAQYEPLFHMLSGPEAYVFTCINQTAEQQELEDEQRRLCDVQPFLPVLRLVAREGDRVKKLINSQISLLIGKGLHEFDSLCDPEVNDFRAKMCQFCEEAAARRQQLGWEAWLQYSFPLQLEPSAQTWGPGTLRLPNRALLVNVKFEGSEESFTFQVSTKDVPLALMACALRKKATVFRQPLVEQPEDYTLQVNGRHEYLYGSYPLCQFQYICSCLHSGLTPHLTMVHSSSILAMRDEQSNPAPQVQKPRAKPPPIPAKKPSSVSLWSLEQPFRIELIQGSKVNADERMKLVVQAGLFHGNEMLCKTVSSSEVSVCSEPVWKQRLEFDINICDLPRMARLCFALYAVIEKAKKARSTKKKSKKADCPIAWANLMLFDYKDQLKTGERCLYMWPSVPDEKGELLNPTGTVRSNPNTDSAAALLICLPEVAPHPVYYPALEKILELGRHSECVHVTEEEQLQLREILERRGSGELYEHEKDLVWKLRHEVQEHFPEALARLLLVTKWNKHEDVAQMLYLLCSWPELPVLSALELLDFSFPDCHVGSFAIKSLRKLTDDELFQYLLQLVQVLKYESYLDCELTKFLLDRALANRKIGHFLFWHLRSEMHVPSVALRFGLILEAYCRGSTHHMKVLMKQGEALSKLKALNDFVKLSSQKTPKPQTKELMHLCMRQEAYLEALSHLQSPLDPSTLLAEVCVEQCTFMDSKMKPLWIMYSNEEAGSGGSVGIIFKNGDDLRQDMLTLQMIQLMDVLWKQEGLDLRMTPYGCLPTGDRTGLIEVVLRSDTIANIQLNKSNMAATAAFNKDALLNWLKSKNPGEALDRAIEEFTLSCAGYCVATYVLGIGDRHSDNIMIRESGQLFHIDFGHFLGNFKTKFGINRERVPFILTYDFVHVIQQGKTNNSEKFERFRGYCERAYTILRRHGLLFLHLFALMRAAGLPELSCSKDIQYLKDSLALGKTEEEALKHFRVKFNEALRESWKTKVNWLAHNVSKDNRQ
In words: Inhibition of human PI3Kdelta.

Data set [9] addresses T3, NUAK family SNF1-like kinase 1 (Homo sapiens, UniProt O60285).
T3 sequence (O60285 whole entry): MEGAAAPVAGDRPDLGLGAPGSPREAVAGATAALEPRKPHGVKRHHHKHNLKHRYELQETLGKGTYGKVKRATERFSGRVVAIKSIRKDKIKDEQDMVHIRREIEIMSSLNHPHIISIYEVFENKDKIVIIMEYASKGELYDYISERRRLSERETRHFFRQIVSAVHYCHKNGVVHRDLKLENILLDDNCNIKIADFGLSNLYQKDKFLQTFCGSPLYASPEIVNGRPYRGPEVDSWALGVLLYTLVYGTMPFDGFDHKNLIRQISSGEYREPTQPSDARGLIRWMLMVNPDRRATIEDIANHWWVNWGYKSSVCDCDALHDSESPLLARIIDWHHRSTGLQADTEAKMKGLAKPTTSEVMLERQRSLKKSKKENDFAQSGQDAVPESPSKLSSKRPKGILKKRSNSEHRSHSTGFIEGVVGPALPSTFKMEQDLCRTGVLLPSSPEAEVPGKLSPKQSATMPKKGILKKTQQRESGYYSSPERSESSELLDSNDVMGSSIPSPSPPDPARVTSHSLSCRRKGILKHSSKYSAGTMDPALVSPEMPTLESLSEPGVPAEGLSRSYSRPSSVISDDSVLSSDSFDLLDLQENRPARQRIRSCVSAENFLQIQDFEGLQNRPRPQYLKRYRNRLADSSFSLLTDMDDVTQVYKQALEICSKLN
In words: Inhibition of human Nuak1.

Another data set has as its system COLO 205. The data set is described as follows: Antiproliferative activity against human COLO205 cells after 72 hrs by luminescence-based cell viability assay. The format is functional. Particulars: COLO 205, 72 h.
Data set [10] has as its target Serine/threonine-protein kinase pim-1 (Homo sapiens, UniProt P11309). The data set is described as follows: Inhibition of human PIM1.
Another data set deals with HT-29. The data set is described as follows: Antiproliferative activity against human HT-29 cells after 72 hrs by luminescence-based cell viability assay. Particulars: HT-29, 72 h. Format: functional.
The subject of a further data set is SK-OV-3. The data set is described as follows: Antiproliferative activity against human SKOV3 cells after 72 hrs by luminescence-based cell viability assay. Format: functional. The following applies: SK-OV-3, 72 h.
Another data set relates to MX1. The data set is described as follows: Antiproliferative activity against human MX1 cells after 72 hrs by luminescence-based cell viability assay. Format: functional. Particulars: MX1, 72 h.
Data set [11] has as its target Phosphatidylinositol 4,5-bisphosphate 3-kinase catalytic subunit gamma isoform (Homo sapiens, UniProt P48736). The data set is described as follows: Inhibition of human PI3Kgamma.

Sequence of Serine/threonine-protein kinase PLK3 (Q9H4B4 whole entry): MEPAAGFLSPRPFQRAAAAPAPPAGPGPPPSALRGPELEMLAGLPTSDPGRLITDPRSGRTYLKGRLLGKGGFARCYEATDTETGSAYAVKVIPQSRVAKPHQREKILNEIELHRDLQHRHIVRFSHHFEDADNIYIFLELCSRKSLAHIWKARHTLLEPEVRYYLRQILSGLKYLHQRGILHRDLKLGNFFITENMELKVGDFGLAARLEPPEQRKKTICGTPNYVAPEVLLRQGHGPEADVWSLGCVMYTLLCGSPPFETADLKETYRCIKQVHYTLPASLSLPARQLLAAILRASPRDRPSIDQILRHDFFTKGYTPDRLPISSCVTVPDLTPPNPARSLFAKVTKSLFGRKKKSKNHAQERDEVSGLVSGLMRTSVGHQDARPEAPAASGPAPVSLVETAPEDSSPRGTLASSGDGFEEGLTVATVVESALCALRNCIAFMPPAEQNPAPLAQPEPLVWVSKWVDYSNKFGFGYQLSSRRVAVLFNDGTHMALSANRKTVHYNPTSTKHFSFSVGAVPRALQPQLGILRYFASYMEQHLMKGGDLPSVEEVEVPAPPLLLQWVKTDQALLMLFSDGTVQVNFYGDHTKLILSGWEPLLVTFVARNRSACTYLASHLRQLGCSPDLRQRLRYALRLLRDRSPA
Sequence of Serine/threonine-protein kinase PLK1 (P53350 whole entry): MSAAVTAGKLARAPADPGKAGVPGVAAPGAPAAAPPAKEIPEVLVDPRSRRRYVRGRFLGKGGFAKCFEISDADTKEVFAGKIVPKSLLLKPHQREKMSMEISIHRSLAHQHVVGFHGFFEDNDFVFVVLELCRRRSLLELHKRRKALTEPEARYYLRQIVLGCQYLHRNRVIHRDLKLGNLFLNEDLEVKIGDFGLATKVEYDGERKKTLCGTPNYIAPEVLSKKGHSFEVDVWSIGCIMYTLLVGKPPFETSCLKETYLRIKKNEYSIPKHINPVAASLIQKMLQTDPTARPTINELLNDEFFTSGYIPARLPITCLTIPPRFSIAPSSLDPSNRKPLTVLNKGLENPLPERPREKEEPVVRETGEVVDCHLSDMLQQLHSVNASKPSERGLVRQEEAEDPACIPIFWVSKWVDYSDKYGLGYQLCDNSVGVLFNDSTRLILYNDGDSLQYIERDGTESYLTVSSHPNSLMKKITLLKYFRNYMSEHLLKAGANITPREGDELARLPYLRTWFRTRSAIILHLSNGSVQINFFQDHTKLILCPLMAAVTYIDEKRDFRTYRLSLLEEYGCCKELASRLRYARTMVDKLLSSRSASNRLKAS
Sequence of Serine/threonine-protein kinase pim-1 (P11309 whole entry): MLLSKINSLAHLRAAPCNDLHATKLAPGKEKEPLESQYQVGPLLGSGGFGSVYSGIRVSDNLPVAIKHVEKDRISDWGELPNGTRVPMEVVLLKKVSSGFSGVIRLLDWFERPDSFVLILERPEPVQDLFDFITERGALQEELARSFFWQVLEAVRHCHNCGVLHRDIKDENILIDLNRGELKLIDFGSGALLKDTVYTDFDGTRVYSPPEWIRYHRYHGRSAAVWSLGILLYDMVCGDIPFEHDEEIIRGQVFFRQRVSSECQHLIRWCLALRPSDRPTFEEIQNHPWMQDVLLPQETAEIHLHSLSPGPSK
Sequence of Vascular endothelial growth factor receptor 2 (P35968 whole entry): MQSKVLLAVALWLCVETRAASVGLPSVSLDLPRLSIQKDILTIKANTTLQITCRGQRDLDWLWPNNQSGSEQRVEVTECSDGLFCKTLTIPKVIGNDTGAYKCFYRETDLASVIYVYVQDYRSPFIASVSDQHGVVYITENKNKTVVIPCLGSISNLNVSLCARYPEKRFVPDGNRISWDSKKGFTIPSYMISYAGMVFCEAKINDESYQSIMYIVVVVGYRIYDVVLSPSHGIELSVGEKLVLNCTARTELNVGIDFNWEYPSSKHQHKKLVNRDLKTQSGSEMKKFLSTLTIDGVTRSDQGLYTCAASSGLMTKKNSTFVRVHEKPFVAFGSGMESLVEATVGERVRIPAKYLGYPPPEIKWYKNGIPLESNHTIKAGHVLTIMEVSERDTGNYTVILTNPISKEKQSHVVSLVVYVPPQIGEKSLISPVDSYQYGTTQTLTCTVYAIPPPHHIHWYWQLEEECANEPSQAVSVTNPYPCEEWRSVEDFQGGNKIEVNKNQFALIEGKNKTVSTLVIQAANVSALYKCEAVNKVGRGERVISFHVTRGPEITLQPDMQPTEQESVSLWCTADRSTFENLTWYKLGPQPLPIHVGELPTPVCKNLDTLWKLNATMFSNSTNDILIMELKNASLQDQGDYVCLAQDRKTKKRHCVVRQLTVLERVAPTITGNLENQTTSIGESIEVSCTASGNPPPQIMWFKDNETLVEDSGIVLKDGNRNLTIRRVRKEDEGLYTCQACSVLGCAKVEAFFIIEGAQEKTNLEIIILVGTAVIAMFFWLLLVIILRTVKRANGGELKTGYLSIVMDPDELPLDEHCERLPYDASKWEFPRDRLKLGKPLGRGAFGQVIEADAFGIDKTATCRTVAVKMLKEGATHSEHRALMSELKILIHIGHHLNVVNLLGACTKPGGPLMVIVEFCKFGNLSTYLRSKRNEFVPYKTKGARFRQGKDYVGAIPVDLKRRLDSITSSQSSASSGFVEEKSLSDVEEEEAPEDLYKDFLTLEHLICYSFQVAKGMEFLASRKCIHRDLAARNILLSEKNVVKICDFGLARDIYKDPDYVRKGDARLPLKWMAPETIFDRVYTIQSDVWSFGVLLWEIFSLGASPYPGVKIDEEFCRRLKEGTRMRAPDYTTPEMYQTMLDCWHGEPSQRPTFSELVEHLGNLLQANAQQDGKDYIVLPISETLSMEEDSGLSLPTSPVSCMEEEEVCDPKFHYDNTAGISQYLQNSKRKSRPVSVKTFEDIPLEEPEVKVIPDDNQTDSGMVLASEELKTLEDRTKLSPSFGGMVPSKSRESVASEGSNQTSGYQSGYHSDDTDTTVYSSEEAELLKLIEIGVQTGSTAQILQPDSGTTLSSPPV
Sequence of Platelet-derived growth factor receptor beta (P09619 whole entry): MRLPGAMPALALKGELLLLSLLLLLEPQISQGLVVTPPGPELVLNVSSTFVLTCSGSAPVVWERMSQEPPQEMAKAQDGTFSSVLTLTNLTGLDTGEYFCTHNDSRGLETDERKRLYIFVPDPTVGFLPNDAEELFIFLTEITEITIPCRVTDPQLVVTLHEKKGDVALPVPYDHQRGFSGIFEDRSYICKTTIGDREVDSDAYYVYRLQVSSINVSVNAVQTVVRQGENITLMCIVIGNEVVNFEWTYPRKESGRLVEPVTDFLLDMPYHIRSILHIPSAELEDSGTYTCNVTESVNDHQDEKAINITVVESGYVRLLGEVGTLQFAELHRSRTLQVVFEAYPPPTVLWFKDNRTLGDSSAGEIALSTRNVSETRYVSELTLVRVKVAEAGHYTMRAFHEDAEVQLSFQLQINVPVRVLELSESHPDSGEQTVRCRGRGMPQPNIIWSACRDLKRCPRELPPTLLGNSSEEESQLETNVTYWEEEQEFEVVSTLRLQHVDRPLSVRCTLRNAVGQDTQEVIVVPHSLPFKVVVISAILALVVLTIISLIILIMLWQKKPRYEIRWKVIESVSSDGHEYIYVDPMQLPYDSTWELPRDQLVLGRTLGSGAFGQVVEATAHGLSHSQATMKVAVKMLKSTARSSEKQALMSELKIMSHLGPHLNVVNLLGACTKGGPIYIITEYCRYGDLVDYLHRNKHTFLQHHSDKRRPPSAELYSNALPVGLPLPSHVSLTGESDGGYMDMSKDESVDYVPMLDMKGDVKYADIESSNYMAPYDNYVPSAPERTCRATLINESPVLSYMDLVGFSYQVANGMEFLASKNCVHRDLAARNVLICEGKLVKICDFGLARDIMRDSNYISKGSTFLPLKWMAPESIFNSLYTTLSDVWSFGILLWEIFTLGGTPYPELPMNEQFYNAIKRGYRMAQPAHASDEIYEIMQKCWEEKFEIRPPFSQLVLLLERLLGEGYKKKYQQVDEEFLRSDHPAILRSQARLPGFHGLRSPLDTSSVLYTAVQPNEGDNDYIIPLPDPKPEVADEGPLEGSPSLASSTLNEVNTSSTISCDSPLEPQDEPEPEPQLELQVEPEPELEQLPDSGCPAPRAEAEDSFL
Description for HCT-116: Antiproliferative activity against human HCT116 cells after 72 hrs by luminescence-based cell viability assay

In [1], `COc1cc2ncn(-c3cc(O[C@H](C)c4ccccc4Cl)c(C(N)=O)s3)c2cc1OC` [GSK-237701A] showed a solubility at 0.25 h, 200 µM of 2 µM (≈ 0.916 µg/mL). The values for the IC50 (in data set [2]; with HCT-116) were 6 nM and 25 nM, respectively.

The compound `CC(Oc1cc(-n2cnc3ccc(O[C@@H]4CCCN(C)CC4)cc32)sc1C(N)=O)c1ccccc1Cl` (single isomer, unassigned) returned a solubility at 0.25 h, 200 µM in [1] of 200 µM (≈ 105 µg/mL). Also, the fraction unbound at 6 h, 2000 ng/mL in data set [3] was 0.02. For the same compound, the IC50 in the data set with HCT-116 amounted to 13 nM.

Consider `CC(Oc1cc(-n2cnc3ccc(OCC4CCN(C)CC4)cc32)sc1C(N)=O)c1ccccc1Cl` (single isomer, unassigned) [GSK-571989A], for which the solubility at 0.25 h, 200 µM in data set [1] is at least 172 µM. Also, in data set [3], the fraction unbound at 6 h, 2000 ng/mL is 0.021. In addition, the IC50 in data set [2] stood at 1100 nM; with HCT-116, 34 nM; in data set [4], 6 nM.

As for `CC(Oc1cc(-n2cnc3ccc(OC4CCN(C)CC4)cc32)sc1C(N)=O)c1ccccc1C(F)(F)F` (single isomer, unassigned), the IC50 turned out to be 800 nM in data set [5]; 14 nM in the data set with A549; 110 nM in data set [6]; 25 nM in data set [7]; 530 nM in [8]; 840 nM in data set [9]. Moreover, the 50% inhibitory concentration (IC50) in the data set with COLO 205 was 5 nM; in data set [10] it was 340 nM; in the data set on HT-29, 3 nM; with SK-OV-3, 32 nM; with MX1, 10 nM; in data set [2] it was 270 nM. The half-inhibitory concentration (IC50) stood at 12 nM with HCT-116 and 390 nM in data set [11]. The concentration in solution in data set [1] (solubility at 0.25 h, 200 µM) was 179 µM (≈ 97.5 µg/mL). In addition, in data set [3], the fraction unbound at 6 h, 2000 ng/mL is 0.052.

In data set [1], `CC(Oc1cc(-n2cnc3ccc(OCC4CCN(C)CC4)cc32)sc1C(N)=O)c1ccccc1C(F)(F)F` (single isomer, unassigned) [GSK-326090A] came in with a solubility at 0.25 h, 200 µM of 109 µM (≈ 60.9 µg/mL). In [3], the fraction unbound at 6 h, 2000 ng/mL was 0.023. In addition, the 50% inhibitory concentration (IC50) in data set [2] amounted to 550 nM; in the data set with HCT-116, 30 nM; in data set [4], 7 nM.

Compound `CC(Oc1cc(-n2cnc3ccc(OC[C@@H](O)CO)cc32)sc1C(N)=O)c1ccccc1Cl` (single isomer, unassigned) [GSK-978744A] gave a solubility at 0.25 h, 200 µM in data set [1] of 15 µM (≈ 7.32 µg/mL). Moreover, the figures for the IC50 (in data set [2]; in the data set on HCT-116; in data set [4]) were 61 nM, 73 nM and 1 nM, respectively.

On to `CC(Oc1cc(-n2cnc3ccc(OC4CCN(C)CC4)cc32)sc1C(N)=O)c1ccccc1Cl` (single isomer, unassigned) [GSK-579289A], for which the IC50 was found to be 1200 nM in data set [5]; 11 nM with A549; 420 nM in [6]; 21 nM in data set [7]; 440 nM in data set [8]; 2000 nM in data set [9]. Besides, the half-maximal inhibitory concentration (IC50) amounted to 5 nM in the data set on COLO 205; 310 nM in [10]; 3 nM in the data set on HT-29; 11 nM in the data set with SK-OV-3; 9 nM with MX1; 630 nM in data set [2]. In the data set on HCT-116, this compound came in with an IC50 of 11 nM. Moreover, the solubility at 0.25 h, 200 µM in data set [1] was at least 190 µM. The fraction unbound at 6 h, 2000 ng/mL in data set [3] was 0.085.

For the compound `C[C@@H](Oc1cc(-n2cnc3ccc(OC[C@H](O)CN4CCCC4)cc32)sc1C(N)=O)c1ccccc1Cl` (single isomer, unassigned), the solubility at 0.25 h, 200 µM in data set [1] is 170 µM (≈ 92 µg/mL). Also, in [3], the fraction unbound at 6 h, 2000 ng/mL was 0.038. Moreover, 45 nM corresponded to half-maximal inhibition in the data set on HCT-116 (IC50).

`CC(Oc1cc(-n2cnc3ccc(OCCCN(C)C)cc32)sc1C(N)=O)c1ccccc1Cl` (single isomer, unassigned) displayed a solubility at 0.25 h, 200 µM in data set [1] of 161 µM (≈ 80.3 µg/mL). Also, the fraction unbound at 6 h, 2000 ng/mL in [3] is 0.026. Also, the IC50 in the data set with HCT-116 is 32 nM.

As for `COc1ccc2ncn(-c3cc(O[C@H](C)c4ccccc4Cl)c(C(N)=O)s3)c2c1` [GSK-317314A], in data set [1], the concentration in solution (solubility at 0.25 h, 200 µM) came to 3 µM (≈ 1.28 µg/mL). For the same compound, the fraction unbound at 6 h, 2000 ng/mL in [3] is 0.005. In addition, the values for the IC50 (in [2]; in the data set with HCT-116; in data set [4]) were 35 nM, 321 nM and 1 nM, respectively.

For `CC(Oc1cc(-n2cnc3ccc(O[C@H]4CCCN(C)CC4)cc32)sc1C(N)=O)c1ccccc1Cl` (single isomer, unassigned), the solubility at 0.25 h, 200 µM in [1] was at least 200 µM. Besides, the fraction unbound at 6 h, 2000 ng/mL in data set [3] was 0.031. Besides, in the data set on HCT-116, inhibition was half-maximal at 17 nM (IC50).

`COc1cc2ncn(-c3cc(OCc4ccccc4Cl)c(C(N)=O)s3)c2cc1OC` [GW852849X]: the values for the IC50 (in [2]; in the data set on HCT-116) were 9 nM and 1140 nM, respectively.

For the compound `COc1ccc2ncn(-c3cc(O[C@H](C)c4ccccc4C(F)(F)F)c(C(N)=O)s3)c2c1` [GSK-317315A], the solubility at 0.25 h, 200 µM in [1] was 1 µM (≈ 0.461 µg/mL). Besides, the fraction unbound at 6 h, 2000 ng/mL in [3] is 0.005. Besides, the IC50 stood at 41 nM in data set [2], 476 nM in the data set with HCT-116 and 3 nM in [4].

As for `COc1cc2ncn(-c3cc(O[C@@H](C)c4ccccc4Cl)c(C(N)=O)s3)c2cc1OC` [GSK-237700A], the figures for the concentration for half-maximal inhibition (IC50) (in data set [2]; in the data set on HCT-116) were 44 nM and 994 nM, respectively.

In data set [1], `CC(Oc1cc(-n2cnc3ccc(OC4CCNCC4)cc32)sc1C(N)=O)c1ccccc1C(F)(F)F` (single isomer, unassigned) gave a solubility at 0.25 h, 200 µM of 104 µM (≈ 55.2 µg/mL). Also, the fraction unbound at 6 h, 2000 ng/mL in [3] was 0.034. In the data set with HCT-116, this compound had an IC50 of 15 nM.
